# Test results: patent US20080194585A1, “Fungicidal Pyrazine Derivatives” (priority 2005, published 2008)
# Marks after values point to notes of the source that are not given here.
# Assays:
# [1] = system: Puccinia recondita f. sp. tritici; experiment: Test K: wheat leaf rust, preventive spray on wheat seedlings
# [2] = system: Pythium aphanidermatum; experiment: Test A: bluegrass pythium blight, preventive spray on bluegrass seedlings
# [3] = system: Colletotrichum orbiculare; experiment: Test B: cucumber Colletotrichum anthracnose, preventive spray on cucumber seedlings
# [4] = system: Phytophthora infestans; experiment: whole plant or invertebrate; type: in vivo
# [5] = system: Botrytis cinerea; experiment: Test E: tomato botrytis, preventive spray on tomato seedlings
# [6] = system: Sclerotinia sclerotiorum; experiment: Test C: cucumber white mold, preventive spray on cucumber seedlings
# [7] = system: Septoria tritici; experiment: Test J: wheat leaf blotch, preventive spray on wheat seedlings; type: in vivo
# From the text: A dash (-) indicates no test results.
# [8] = system: Plasmopara viticola; experiment: Test D: grape downy mildew, spray after inoculation of grape seedlings; type: in vivo
# From the text: Upon removal, disease ratings were made. […] A dash (-) indicates no test results.
# [9] = system: Septoria nodorum; experiment: Test H: wheat glum blotch, preventive spray on wheat seedlings
# Description: (the causal agent of wheat glum blotch) and incubated in a saturated atmosphere at 20° C. for 48 h, and then moved to a growth chamber at 22° C. for 5 days, after which disease ratings were made.
# [10] = system: Erysiphe graminis f. sp. tritici; experiment: Test L: wheat powdery mildew, preventive spray on wheat seedlings
# [11] = system: Rhizoctonia oryzae; experiment: Test G: turf brown patch, preventive spray on creeping bent grass seedlings
# Description: (the causal agent of turf brown patch) and incubated in a saturated atmosphere at 27° C. for 24 h, and then moved to a growth chamber at 27° C. for 5 days, after which disease ratings were made.
# [12] = 40 ppm (marked *), 100 = 100% disease control, 0 = no control
Compound,Test K disease control rating ([1]; 40 ppm (*)),Test A disease control rating ([2]; 40 ppm (*)),Test B disease control rating ([3]; 40 ppm (*)),Test F disease control rating ([4]; 40 ppm (*)),Test E disease control rating ([5]; 40 ppm (*)),Test C disease control rating ([6]; 40 ppm (*)),Test J disease control rating ([7]; 40 ppm (*)),Test D disease control rating ([8]; 40 ppm (*)),Test H disease control rating ([9]; 40 ppm (*)),Test L disease control rating ([10]; 40 ppm (*)),Test G disease control rating ([11]; 40 ppm (*)),other results
CC1CCCCC1n1c(-c2c(F)cccc2F)c(Cl)nc(C#N)c1=O (stereo not shown) [compound 223],0* %,0* %,0* %,0* %,0* %,0* %,17* %,0* %,0* %,51* %,0* %,–
CC1CCCCC1n1c(-c2c(F)cccc2F)c(Cl)nc(-n2cccn2)c1=O (stereo not shown) [compound 224],94* %,0* %,66* %,0* %,100* %,0* %,100* %,0* %,99* %,83* %,92* %,–
CC1CCCCC1n1c(-c2c(F)cccc2F)c(Cl)nc(-n2cncn2)c1=O (stereo not shown) [compound 225],73* %,0* %,0* %,0* %,100* %,0* %,100* %,0* %,73* %,0* %,0* %,–
CCCCn1c(-c2c(F)cc(F)cc2F)c(Cl)nc(N2CCC=N2)c1=O [compound 226],82* %,0* %,0* %,0* %,0* %,0* %,100* %,0* %,95* %,46* %,0* %,–
CCCCn1c(-c2c(F)cc(F)cc2F)c(Cl)nc(-n2cccn2)c1=O [compound 227],100* %,0* %,96* %,0* %,100* %,0* %,100* %,96* %,100* %,99* %,100* %,–
CCCCn1c(-c2c(F)cc(F)cc2F)c(Cl)nc(-n2ccc(C)n2)c1=O [compound 228],99* %,0* %,98* %,0* %,100* %,0* %,99* %,77* %,100* %,99* %,99* %,–
CCCCn1c(-c2c(F)cc(F)cc2F)c(Cl)nc(-n2cncn2)c1=O [compound 229],17* %,0* %,0* %,0* %,95* %,0* %,57* %,0* %,82* %,88* %,16* %,–
CCCCn1c(-c2c(F)cc(F)cc2F)c(Cl)nc(-n2nccc2C)c1=O [compound 239],0* %,0* %,0* %,0* %,0* %,0* %,19* %,0* %,0* %,0* %,0* %,–
CCCCn1c(-c2c(F)cc(F)cc2F)c(Cl)nc(-c2ccccn2)c1=O [compound 240],67* %,0* %,9* %,0* %,100* %,0* %,93* %,0* %,78* %,98* %,0* %,–
Cc1ccn(-c2nc(Cl)c(-c3c(F)cccc3F)n(CC(C)C)c2=O)n1 [compound 241],100* %,0* %,92* %,0* %,100* %,0* %,100* %,33* %,95* %,93* %,85* %,–
Cc1ccn(-c2nc(C)c(-c3c(F)cccc3F)n(CC(C)C)c2=O)n1 [compound 243],45* %,0* %,0* %,0* %,100* %,0* %,86* %,0* %,0* %,98* %,68* %,–
CC(C)Cn1c(-c2cccnc2Cl)c(Cl)nc(-n2cccn2)c1=O [compound 244],8* %,0* %,0* %,0* %,42* %,0* %,9* %,31* %,0* %,0* %,0* %,–
COc1cccc(-c2c(Cl)nc(-n3cncn3)c(=O)n2CC(C)C)c1 [compound 245],0* %,0* %,0* %,0* %,0* %,0* %,46* %,0* %,0* %,0* %,0* %,–
COc1cccc(-c2c(Cl)nc(-n3cccn3)c(=O)n2CC(C)C)c1 [compound 246],0* %,0* %,0* %,0* %,99* %,0* %,26* %,–,0* %,78* %,0* %,Test D disease control rating ([8]; 200 ppm): 9%
Cc1cccc(-c2c(Cl)nc(-n3cncn3)c(=O)n2CC(C)C)c1 [compound 247],0* %,0* %,0* %,0* %,0* %,0* %,35* %,0* %,0* %,0* %,0* %,–
Cc1cccc(-c2c(Cl)nc(-n3cccn3)c(=O)n2CC(C)C)c1 [compound 248],0* %,0* %,0* %,0* %,66* %,0* %,44* %,0* %,0* %,0* %,0* %,–
CC(C)Cn1c(-c2cccc(C#N)c2)c(Cl)nc(-n2cncn2)c1=O [compound 249],–,–,–,–,–,–,–,–,–,–,–,"Test K disease control rating [1, 12]: 0* %; Test A disease control rating [2, 12]: 0* %; Test B disease control rating [3, 12]: 0* %; Test F disease control rating [4, 12]: 0* %; Test E disease control rating [5, 12]: 0* %; Test C disease control rating [6, 12]: 0* %; Test J disease control rating [7, 12]: 26* %; Test D disease control rating [8, 12]: 0* %; Test H disease control rating [9, 12]: 0* %; Test L disease control rating [10, 12]: 0* %; Test G disease control rating [11, 12]: 0* %"
